The values that follow come from the supplement of paper PMC11061612.

For one experiment, the system named is H4 (Low Grade Glioma). Briefly: combination Emax (second highest fraction inhibited in the dose matrix, 72 h); higher = more inhibition; extreme values may be limits of the assay. The method, boiled down: (§1)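 After 24 hours at 37°C and 5% CO2 in 1536-well plates, cells in DMEM/F12 or RPMI plus 10% FBS received two-drug dose matrices for 72 hours. Viability came from CellTiter-Glo 2.0 luminescence and was scaled as inhibition, anchored at 0 by vehicle wells and at 1 by blank wells. Combination Emax is taken as the second-highest inhibition in the matrix, and Bliss excess as the observed combination effect less EA + EB − EA·EB, with EA and EB the single-agent effects.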

Experiment [1] deals with BICR78 (Oral Cavity Carcinoma). Described as above. The method, boiled down:
as §1

The next experiment deals with MSTO-211H (Mesothelioma). The experiment is described as above. The method, boiled down: as §1
In experiment [2] the test system is SLVL (B-Cell Non-Hodgkin's Lymphoma). Described as above. The method, boiled down: as §1
The subject of experiment [3] is YT (Other Blood Carcinomas). The description is as above. In a few lines:
as §1

The subject of experiment [4] is HLE (Hepatocellular Carcinoma). The description is as above. The method, boiled down: as §1
Experiment [5] deals with FU-OV-1 (Ovarian Carcinoma). The description is as above. In a few lines:
as §1

The subject of experiment [6] is SK-UT-1 (Other Solid Carcinomas). The description is as above. The method, boiled down:
as §1

Experiment [7] has as its system SK-LMS-1 (Other Solid Carcinomas). The experiment is described as above. The method, boiled down:
as §1

Another experiment deals with SK-MEL-1 (Melanoma). The experiment is described as above. In a few lines:
as §1

Experiment [8] deals with SNG-M (Endometrial Carcinoma). Described as above. In a few lines: as §1
For another experiment, the system named is CS1 (Chondrosarcoma). The description is as above. In a few lines:
as §1

The next experiment has as its system D-392MG (Glioblastoma). The description is as above. The method, boiled down:
as §1

Experiment [9] relates to D-283MED (Other Solid Carcinomas). The experiment can be described thus: Bliss excess, mean over the matrix (fraction); higher = more synergy. In a few lines:
as §1

Regarding `CN(CCO)CC[C@H](CSc1ccccc1)Nc1ccc(S(=O)(=O)NC(=O)c2ccc(N3CCC([C@@H](O)c4ccccc4-c4ccc(Cl)cc4)CC3)cc2)cc1S(=O)(=O)C(F)(F)F` [AZD4320] + CS(=O)(=O)CCNCc1ccc(-c2ccc3ncnc(Nc4ccc(OCc5cccc(F)c5)c(Cl)c4)c3c2)o1 [Lapatinib] (first compound max 1 µM, 7x7, partner max 10 µM), the “combination Emax” value stood at 0.93 with H4 (Low Grade Glioma); 0.456 in experiment [1]; 0.952 with MSTO-211H (Mesothelioma); 0.98 in experiment [2]; 0.451 in experiment [3]; 0.945 in experiment [4]. Besides, the “combination Emax” value in experiment [5] turned out to be 0.59; in experiment [6], 0.906; in [7], 0.817; with SK-MEL-1 (Melanoma), 0.808; in [8], 0.92; with CS1 (Chondrosarcoma) it was 0.937. Besides, the “combination Emax” value in the experiment on D-392MG (Glioblastoma) turned out to be 0.492. Further, the Bliss excess in experiment [9] is 0.013.
On to `N#Cc1cnc(Nc2cc(NC[C@H]3CNCCO3)c(C(F)(F)F)cn2)cn1` [SRA737] + Nc1ccn([C@@H]2O[C@H](CO)[C@@H](O)C2(F)F)c(=O)n1 [Gemcitabine] (first compound max 10 µM, 7x7, partner max 0.3 µM), for which the “combination Emax” value with H4 (Low Grade Glioma) came out at 0.953; in experiment [1] it was 0.782; in the experiment on MSTO-211H (Mesothelioma) it was 0.83; in experiment [2], 0.961; in experiment [3] it was 1; in experiment [4], 0.773. The “combination Emax” value in experiment [5] was determined as 0.584; in [6] it was 0.957; in experiment [7], 0.855; in the experiment with SK-MEL-1 (Melanoma), 0.482; in [8], 0.869; in the experiment on CS1 (Chondrosarcoma), 0.737. In addition, the “combination Emax” value with D-392MG (Glioblastoma) stood at 0.611. Moreover, the Bliss excess in [9] turned out to be 0.0135.
As to `C[C@@H](Oc1cc(-c2cnn(C3CCNCC3)c2)cnc1N)c1c(Cl)ccc(F)c1Cl` [Crizotinib] + Cn1cnc2c(F)c(Nc3ccc(Br)cc3Cl)c(C(=O)NOCCO)cc21 [Selumetinib] (first compound max 10 µM, 7x7, partner max 10 µM), the “combination Emax” value with H4 (Low Grade Glioma) was found to be 0.787; in experiment [1] it was 0.456; in the experiment on MSTO-211H (Mesothelioma), 0.576; in experiment [2], 0.742; in experiment [3], 0.621; in [4], 0.365. Also, the “combination Emax” value in experiment [5] is 0.673; in experiment [6], 0.331; in experiment [7], 0.78; in the experiment with SK-MEL-1 (Melanoma), 0.916; in experiment [8] it was 0.783; in the experiment with CS1 (Chondrosarcoma), 0.619. The “combination Emax” value with D-392MG (Glioblastoma) was found to be 0.572. In [9], the Bliss excess is -0.0049.
With `N#Cc1cnc(Nc2cc(NC[C@H]3CNCCO3)c(C(F)(F)F)cn2)cn1` [SRA737] + O=c1[nH]cc(F)c(=O)[nH]1 [5-Fluorouracil] (first compound max 10 µM, 7x7, partner max 20 µM), the “combination Emax” value was determined as 0.619 in the experiment with H4 (Low Grade Glioma); 0.55 in [1]; 0.536 in the experiment with MSTO-211H (Mesothelioma); 0.927 in experiment [2]; 0.993 in experiment [3]; 0.129 in experiment [4]. Moreover, the “combination Emax” value was 0.158 in experiment [5]; 0.799 in experiment [6]; 0.268 in experiment [7]; 0.157 in the experiment on SK-MEL-1 (Melanoma); 0.71 in [8]; 0.405 in the experiment with CS1 (Chondrosarcoma). For the same molecule, the “combination Emax” value in the experiment on D-392MG (Glioblastoma) worked out at 0.313. In addition, the Bliss excess in [9] was -0.0048.
`C=CCn1c(=O)c2cnc(Nc3ccc(N4CCN(C)CC4)cc3)nc2n1-c1cccc(C(C)(C)O)n1` [AZD1775] + CCc1c2c(nc3ccc(O)cc13)-c1cc3c(c(=O)n1C2)COC(=O)[C@]3(O)CC [SN-38] (first compound max 1 µM, partner max 0.3 µM): the “combination Emax” value in the experiment with H4 (Low Grade Glioma) was found to be 0.908; in [1], 0.854; with MSTO-211H (Mesothelioma) it was 0.783; in experiment [2], 0.967; in [3] it was 0.977; in [4] it was 0.791. Further, the “combination Emax” value worked out at 0.711 in experiment [5]; 0.982 in experiment [6]; 0.898 in experiment [7]; 0.56 in the experiment with SK-MEL-1 (Melanoma); 0.77 in experiment [8]; 0.786 in the experiment with CS1 (Chondrosarcoma). Further, the “combination Emax” value in the experiment with D-392MG (Glioblastoma) is 0.569. In addition, in experiment [9], the Bliss excess is -0.0258.
In the case of `N#Cc1cnc(Nc2cc(NC[C@H]3CNCCO3)c(C(F)(F)F)cn2)cn1` [SRA737] + CCc1c2c(nc3ccc(O)cc13)-c1cc3c(c(=O)n1C2)COC(=O)[C@]3(O)CC [SN-38] (first compound max 10 µM, 7x7, partner max 0.3 µM), the “combination Emax” value with H4 (Low Grade Glioma) worked out at 0.832; in experiment [1] it was 0.854; in the experiment with MSTO-211H (Mesothelioma) it was 0.705; in [2], 0.945; in [3], 0.987; in experiment [4], 0.798. The “combination Emax” value in experiment [5] worked out at 0.495; in experiment [6], 0.943; in [7], 0.89; in the experiment on SK-MEL-1 (Melanoma), 0.486; in [8], 0.786; in the experiment with CS1 (Chondrosarcoma), 0.786. Besides, the “combination Emax” value in the experiment with D-392MG (Glioblastoma) stood at 0.453. In addition, in experiment [9], the Bliss excess was -0.0395.
Take `CC1(C)CCC(CN2CCN(c3ccc(C(=O)NS(=O)(=O)c4ccc(NCC5CCOCC5)c([N+](=O)[O-])c4)c(Oc4cnc5[nH]ccc5c4)c3)CC2)=C(c2ccc(Cl)cc2)C1` [Venetoclax] + CS(=O)(=O)CCNCc1ccc(-c2ccc3ncnc(Nc4ccc(OCc5cccc(F)c5)c(Cl)c4)c3c2)o1 [Lapatinib] (first compound max 1 µM, 7x7, partner max 10 µM): the “combination Emax” value in the experiment with H4 (Low Grade Glioma) is 0.171; in experiment [1], 0.364; in the experiment on MSTO-211H (Mesothelioma), 0.299; in experiment [2], 0.26; in [3] it was 0.295; in experiment [4], 0.137. Moreover, the “combination Emax” value in experiment [5] came to 0.324; in [6] it was 0.458; in experiment [7] it was 0.212; in the experiment on SK-MEL-1 (Melanoma) it was 0.327; in experiment [8], 0.247; in the experiment with CS1 (Chondrosarcoma) it was 0.411. The “combination Emax” value in the experiment on D-392MG (Glioblastoma) came out at 0.0713. In addition, the Bliss excess in experiment [9] is -0.0416.
As for `Cc1c2c(nn1C)CSCc1cc(n(C)n1)CSc1cc(c3ccccc3c1)OCCCc1c(C(=O)O)n(C)c3c-2c(Cl)ccc13` [AZD5991] + CC(=O)O[C@H]1C(=O)[C@@]2(C)[C@H]([C@H](OC(=O)c3ccccc3)[C@]3(O)C[C@H](OC(=O)[C@H](O)[C@@H](NC(=O)c4ccccc4)c4ccccc4)C(C)=C1C3(C)C)[C@]1(OC(C)=O)CO[C@@H]1C[C@@H]2O [Paclitaxel] (first compound max 1 µM, 7x7, partner max 3 µM), the “combination Emax” value in the experiment with H4 (Low Grade Glioma) stood at 0.995; in experiment [1], 0.701; in the experiment with MSTO-211H (Mesothelioma), 0.391; in experiment [2] it was 0.954; in [3], 1; in experiment [4], 0.825. Further, the “combination Emax” value in experiment [5] amounted to 0.474; in experiment [6], 0.884; in [7], 0.919; with SK-MEL-1 (Melanoma) it was 0.21; in experiment [8], 1; in the experiment on CS1 (Chondrosarcoma), 0.652. In the experiment with D-392MG (Glioblastoma), the “combination Emax” value came out at 0.734. Moreover, the Bliss excess in [9] was -0.0552.
